Experimental data from ChEMBL document CHEMBL1201862, “PubChem BioAssay data set” (2004).
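Growth conditions: 96-well plates. Treatment: test compound, 48 hours, 5 concentrations. Analysis: linear interpolation between bracketing concentrations; unreached endpoints set to highest concentration. GI50 marks 50% less growth.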 Activity calls are given as the source filed them. Rule as the data show it: active = GI50 up to about 1.1 µM and inactive = higher.

Columns and labels:
Experiment in all cases: NCI-60 cell line screen, 48 h
[1] = test system: A549
[2] = test system: BT-549
[3] = test system: CCRF-CEM
[4] = test system: COLO 205
[5] = test system: HCT-116
[6] = test system: HT-29
[7] = test system: KM12
[8] = test system: MDA-MB-231
[9] = test system: Malme-3M
[10] = test system: OVCAR-3
[11] = test system: OVCAR-5
[12] = test system: SF-268
[13] = test system: SK-MEL-5
[14] = test system: SNB-19
[15] = test system: SR
[16] = test system: TK-10
[17] = test system: U-251
[18] = test system: UACC-257
[19] = test system: SNB-75

SMILES	GI50 [1]	GI50 [2]	GI50 [3]	GI50 [4]	GI50 [5]	GI50 [6]	GI50 [7]	GI50 [8]	GI50 [9]	GI50 [10]	GI50 [11]	GI50 [12]	GI50 [13]	GI50 [14]	GI50 [15]	GI50 [16]	GI50 [17]	GI50 [18]	GI50 [19]
CC(C)C(/N=C/c1ccccc1O)C(=O)O (stereo not drawn)	> 100 µM (inactive)	> 100 µM (inactive)	> 100 µM (inactive)	> 100 µM (inactive)	> 100 µM (inactive)	> 100 µM (inactive)	> 100 µM (inactive)	87.9 µM (inactive)	55.3 µM (inactive)	> 100 µM (inactive)	> 100 µM (inactive)	> 100 µM (inactive)	> 100 µM (inactive)	> 100 µM (inactive)	> 100 µM (inactive)	> 100 µM (inactive)	> 100 µM (inactive)	> 100 µM (inactive)	–
COc1cc(/C=C/C(C)=O)ccc1OP(=O)(O)O	> 100 µM (inactive)	> 100 µM (inactive)	–	> 100 µM (inactive)	> 100 µM (inactive)	> 100 µM (inactive)	> 100 µM (inactive)	> 100 µM (inactive)	> 100 µM (inactive)	> 100 µM (inactive)	> 100 µM (inactive)	> 100 µM (inactive)	> 100 µM (inactive)	> 100 µM (inactive)	–	> 100 µM (inactive)	> 100 µM (inactive)	> 100 µM (inactive)	> 100 µM (inactive)
COc1cc2c(cc1OC)CN1CCCc3cc(OC)c(OC)cc3C1C2 (stereo not drawn)	55 µM (inactive)	99.3 µM (inactive)	48.9 µM (inactive)	40.9 µM (inactive)	23.1 µM (inactive)	19.6 µM (inactive)	50 µM (inactive)	56.5 µM (inactive)	30.3 µM (inactive)	39.3 µM (inactive)	51.3 µM (inactive)	61 µM (inactive)	36.1 µM (inactive)	36.9 µM (inactive)	–	51.4 µM (inactive)	36.6 µM (inactive)	67.5 µM (inactive)	13.2 µM (inactive)
O=C1CSC(=S)N1c1ccc(F)cc1F	61.9 µM (inactive)	39.6 µM (inactive)	25.6 µM (inactive)	46.2 µM (inactive)	> 100 µM (inactive)	90.8 µM (inactive)	> 100 µM (inactive)	> 100 µM (inactive)	66.5 µM (inactive)	41.3 µM (inactive)	–	44.6 µM (inactive)	25.4 µM (inactive)	76.6 µM (inactive)	–	94.4 µM (inactive)	59.2 µM (inactive)	43.8 µM (inactive)	42.3 µM (inactive)
CC12Cc3cc4c(cc3C1(c1ccc([N+](=O)[O-])cc1)OCCO2)OCO4 (stereo not drawn)	> 100 µM (inactive)	25.5 µM (inactive)	> 100 µM (inactive)	> 100 µM (inactive)	65.3 µM (inactive)	> 100 µM (inactive)	> 100 µM (inactive)	14.9 µM (inactive)	> 100 µM (inactive)	> 100 µM (inactive)	> 100 µM (inactive)	22.8 µM (inactive)	> 100 µM (inactive)	28.6 µM (inactive)	> 100 µM (inactive)	37.8 µM (inactive)	26.9 µM (inactive)	> 100 µM (inactive)	–
COc1cc(/C=C2\N=C(c3ccccc3)N(c3nc4c(OC)ccc(OC)c4s3)C2=O)cc(OC)c1OC	> 100 µM (inactive)	> 100 µM (inactive)	31.2 µM (inactive)	30.4 µM (inactive)	66.8 µM (inactive)	> 100 µM (inactive)	61.8 µM (inactive)	> 100 µM (inactive)	> 100 µM (inactive)	> 100 µM (inactive)	> 100 µM (inactive)	> 100 µM (inactive)	34.8 µM (inactive)	> 100 µM (inactive)	–	> 100 µM (inactive)	56.1 µM (inactive)	55.6 µM (inactive)	> 100 µM (inactive)
CCOC(=O)/C(=C\Nc1c(C)n(C)n(-c2ccccc2)c1=O)C(=O)c1ccccc1	> 100 µM (inactive)	> 100 µM (inactive)	> 100 µM (inactive)	> 100 µM (inactive)	> 100 µM (inactive)	> 100 µM (inactive)	0.033 µM (active)	> 100 µM (inactive)	> 100 µM (inactive)	> 100 µM (inactive)	> 100 µM (inactive)	> 100 µM (inactive)	> 100 µM (inactive)	> 100 µM (inactive)	> 100 µM (inactive)	> 100 µM (inactive)	> 100 µM (inactive)	> 100 µM (inactive)	–
c1ccc(C[N+]23CN4CN(CN(C4)C2)C3)cc1	29.2 µM (inactive)	48.2 µM (inactive)	11.7 µM (inactive)	18.5 µM (inactive)	27.7 µM (inactive)	33.2 µM (inactive)	33.2 µM (inactive)	20.1 µM (inactive)	57.7 µM (inactive)	> 100 µM (inactive)	> 100 µM (inactive)	29.3 µM (inactive)	23.9 µM (inactive)	26.4 µM (inactive)	–	84.5 µM (inactive)	18.4 µM (inactive)	37.4 µM (inactive)	45.6 µM (inactive)
CN(C)/C=N/c1cc(=O)n(C)c(=O)n1C	> 100 µM (inactive)	> 100 µM (inactive)	> 100 µM (inactive)	> 100 µM (inactive)	> 100 µM (inactive)	> 100 µM (inactive)	> 100 µM (inactive)	> 100 µM (inactive)	> 100 µM (inactive)	> 100 µM (inactive)	> 100 µM (inactive)	> 100 µM (inactive)	> 100 µM (inactive)	> 100 µM (inactive)	–	> 100 µM (inactive)	> 100 µM (inactive)	> 100 µM (inactive)	> 100 µM (inactive)
CC(=O)OCCC[C@@H]1C(=C(C)C)CCC2[C@@]1(C)CC[C@@]1(C)C[C@](C)(CCC=C(C)C)CC[C@]21C (stereo partly drawn)	> 100 µM (inactive)	> 100 µM (inactive)	> 100 µM (inactive)	> 100 µM (inactive)	> 100 µM (inactive)	> 100 µM (inactive)	> 100 µM (inactive)	> 100 µM (inactive)	> 100 µM (inactive)	> 100 µM (inactive)	> 100 µM (inactive)	> 100 µM (inactive)	> 100 µM (inactive)	> 100 µM (inactive)	–	< 0.01 µM (active)	> 100 µM (inactive)	> 100 µM (inactive)	7.94 µM (inactive)
CCOc1cc(C(c2c(O)c3ccccc3oc2=O)c2c(O)c3ccccc3oc2=O)ccc1OC	38.6 µM (inactive)	20.7 µM (inactive)	22.1 µM (inactive)	20 µM (inactive)	19.5 µM (inactive)	24.2 µM (inactive)	18.2 µM (inactive)	16 µM (inactive)	19.8 µM (inactive)	16.3 µM (inactive)	19.6 µM (inactive)	18.9 µM (inactive)	23.2 µM (inactive)	23.8 µM (inactive)	28.1 µM (inactive)	18 µM (inactive)	15.8 µM (inactive)	16.4 µM (inactive)	–
COc1c(/C=C/C(C)(C)O)cc(C2CC(=O)c3c(O)cc(O)cc3O2)cc1CC=C(C)C (stereo not drawn)	9.75 µM (inactive)	8.49 µM (inactive)	13.2 µM (inactive)	9.35 µM (inactive)	9.14 µM (inactive)	8.91 µM (inactive)	10.4 µM (inactive)	8.22 µM (inactive)	10.1 µM (inactive)	–	9.14 µM (inactive)	9.04 µM (inactive)	8.47 µM (inactive)	10.6 µM (inactive)	–	8.67 µM (inactive)	7.71 µM (inactive)	8.3 µM (inactive)	9.86 µM (inactive)
O=C1c2ccccc2C(C2c3ccccc3C(=O)c3cc(Br)ccc32)c2ccc(Br)cc21 (stereo not drawn)	> 100 µM (inactive)	> 100 µM (inactive)	–	> 100 µM (inactive)	59.2 µM (inactive)	> 100 µM (inactive)	> 100 µM (inactive)	> 100 µM (inactive)	> 100 µM (inactive)	> 100 µM (inactive)	> 100 µM (inactive)	> 100 µM (inactive)	> 100 µM (inactive)	> 100 µM (inactive)	–	> 100 µM (inactive)	> 100 µM (inactive)	> 100 µM (inactive)	> 100 µM (inactive)
CC1=NN(c2cccc(Cl)c2)C2(C1=Cc1cccs1)C(Cl)C(=O)N2c1nc2ccccc2s1 (stereo not drawn)	21.9 µM (inactive)	25.2 µM (inactive)	–	–	18.4 µM (inactive)	21.6 µM (inactive)	28.7 µM (inactive)	19.7 µM (inactive)	–	17.7 µM (inactive)	18.2 µM (inactive)	21.5 µM (inactive)	17.4 µM (inactive)	–	18.5 µM (inactive)	28.6 µM (inactive)	15.1 µM (inactive)	23.2 µM (inactive)	34.8 µM (inactive)
O=c1[nH]c(=O)n([C@@H]2O[C@H](CO)[C@@H](O)[C@@H]2F)cc1I [FIALURIDINE]	44.2 µM (inactive)	39.2 µM (inactive)	4.8 µM (inactive)	> 100 µM (inactive)	> 100 µM (inactive)	> 100 µM (inactive)	> 100 µM (inactive)	> 100 µM (inactive)	> 100 µM (inactive)	> 100 µM (inactive)	> 100 µM (inactive)	> 100 µM (inactive)	> 100 µM (inactive)	> 100 µM (inactive)	–	> 100 µM (inactive)	> 100 µM (inactive)	> 100 µM (inactive)	> 100 µM (inactive)
